Among the data in patent publication US20150087627A1, “COMBINATION OF KINASE INHIBITORS AND USES THEREOF” (Intellikine LLC, priority 2011, published 2015) are IC50 values, retold here.

Common to all, as to type: biochemical
The target in assay [1] is T1, PI3K α (p110α/p85α) (Homo sapiens, UniProt P42336).
T1 construct: purchased Upstate / Millipore Corporation
As to the kind of experiment: PI 3-Kinase (human) HTRF assay, PI3K α. The following applies: read-out: PI3K α IC50. On the technique in general: In TR-FRET formats the signal depends on donor and acceptor labels being close together.

The target of assay [2] is T2, PI3K δ (Homo sapiens, UniProt O00329).
T2 construct: purchased Upstate / Millipore Corporation
Put plainly: PI 3-Kinase (human) HTRF assay, PI3K δ. The following applies: read-out: PI3K δ IC50.

In assay [3] the target is T3, PI3K β (p110β/p85α) (Homo sapiens, UniProt P42338).
T3 construct: purchased Upstate / Millipore Corporation
Put plainly: PI 3-Kinase (human) HTRF assay, PI3K β. Conditions: read-out: PI3K β IC50.

Assay [4] has as its target T4, PI3K γ (p110γ) (Homo sapiens, UniProt P48736).
T4 construct: purchased Upstate / Millipore Corporation
Put plainly: PI 3-Kinase (human) HTRF assay, PI3K γ. The following applies: read-out: PI3K γ IC50.

Where two headings read alike, the source gives them in different places.

T1 sequence (P42336 whole entry): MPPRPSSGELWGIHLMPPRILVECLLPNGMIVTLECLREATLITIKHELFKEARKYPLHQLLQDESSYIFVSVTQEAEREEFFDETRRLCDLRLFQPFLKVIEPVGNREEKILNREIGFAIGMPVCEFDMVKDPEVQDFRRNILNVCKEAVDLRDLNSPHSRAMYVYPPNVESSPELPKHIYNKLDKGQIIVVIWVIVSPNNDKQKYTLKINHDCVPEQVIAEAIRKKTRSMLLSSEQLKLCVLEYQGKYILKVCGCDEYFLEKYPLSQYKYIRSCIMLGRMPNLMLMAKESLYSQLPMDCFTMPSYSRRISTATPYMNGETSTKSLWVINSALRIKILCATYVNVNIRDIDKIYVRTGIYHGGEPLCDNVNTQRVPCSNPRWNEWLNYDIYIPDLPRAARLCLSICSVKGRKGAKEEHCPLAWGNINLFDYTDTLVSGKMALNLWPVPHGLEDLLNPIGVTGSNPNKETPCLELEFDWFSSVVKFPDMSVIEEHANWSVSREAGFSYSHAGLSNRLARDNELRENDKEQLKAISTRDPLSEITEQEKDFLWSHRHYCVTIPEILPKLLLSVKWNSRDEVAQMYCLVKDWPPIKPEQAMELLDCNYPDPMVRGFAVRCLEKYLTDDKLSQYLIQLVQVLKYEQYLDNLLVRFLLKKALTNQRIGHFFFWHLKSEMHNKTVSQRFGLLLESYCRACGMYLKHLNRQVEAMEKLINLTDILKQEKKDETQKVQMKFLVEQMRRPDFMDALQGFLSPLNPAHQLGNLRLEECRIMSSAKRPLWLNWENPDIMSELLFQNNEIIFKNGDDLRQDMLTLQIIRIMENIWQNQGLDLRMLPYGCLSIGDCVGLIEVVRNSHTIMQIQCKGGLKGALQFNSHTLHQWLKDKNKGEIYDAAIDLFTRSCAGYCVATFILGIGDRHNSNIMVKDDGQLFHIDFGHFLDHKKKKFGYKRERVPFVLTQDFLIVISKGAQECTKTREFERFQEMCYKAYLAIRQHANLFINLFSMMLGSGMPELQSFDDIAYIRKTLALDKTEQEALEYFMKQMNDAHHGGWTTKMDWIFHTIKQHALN
T1 sequence (P27986 whole entry partner): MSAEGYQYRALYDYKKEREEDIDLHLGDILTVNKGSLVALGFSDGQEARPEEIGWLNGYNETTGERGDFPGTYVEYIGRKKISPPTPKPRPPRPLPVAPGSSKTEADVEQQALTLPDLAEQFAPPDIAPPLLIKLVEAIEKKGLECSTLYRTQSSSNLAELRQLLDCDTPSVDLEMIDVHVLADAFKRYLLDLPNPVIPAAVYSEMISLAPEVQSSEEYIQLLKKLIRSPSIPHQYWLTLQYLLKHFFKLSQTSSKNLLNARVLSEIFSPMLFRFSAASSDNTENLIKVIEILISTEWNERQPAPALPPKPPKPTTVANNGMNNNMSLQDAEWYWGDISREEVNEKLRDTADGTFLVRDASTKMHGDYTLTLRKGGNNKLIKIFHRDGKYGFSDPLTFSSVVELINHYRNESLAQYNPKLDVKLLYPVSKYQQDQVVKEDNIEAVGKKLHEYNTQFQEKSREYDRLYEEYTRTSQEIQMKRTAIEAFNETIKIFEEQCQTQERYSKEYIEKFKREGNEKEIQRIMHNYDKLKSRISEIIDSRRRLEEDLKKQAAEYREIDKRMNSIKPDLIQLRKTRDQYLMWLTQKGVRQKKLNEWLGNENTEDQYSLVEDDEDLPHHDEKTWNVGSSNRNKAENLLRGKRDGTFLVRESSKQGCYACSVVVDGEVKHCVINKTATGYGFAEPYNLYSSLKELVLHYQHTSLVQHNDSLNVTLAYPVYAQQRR
T4 sequence (P48736 whole entry): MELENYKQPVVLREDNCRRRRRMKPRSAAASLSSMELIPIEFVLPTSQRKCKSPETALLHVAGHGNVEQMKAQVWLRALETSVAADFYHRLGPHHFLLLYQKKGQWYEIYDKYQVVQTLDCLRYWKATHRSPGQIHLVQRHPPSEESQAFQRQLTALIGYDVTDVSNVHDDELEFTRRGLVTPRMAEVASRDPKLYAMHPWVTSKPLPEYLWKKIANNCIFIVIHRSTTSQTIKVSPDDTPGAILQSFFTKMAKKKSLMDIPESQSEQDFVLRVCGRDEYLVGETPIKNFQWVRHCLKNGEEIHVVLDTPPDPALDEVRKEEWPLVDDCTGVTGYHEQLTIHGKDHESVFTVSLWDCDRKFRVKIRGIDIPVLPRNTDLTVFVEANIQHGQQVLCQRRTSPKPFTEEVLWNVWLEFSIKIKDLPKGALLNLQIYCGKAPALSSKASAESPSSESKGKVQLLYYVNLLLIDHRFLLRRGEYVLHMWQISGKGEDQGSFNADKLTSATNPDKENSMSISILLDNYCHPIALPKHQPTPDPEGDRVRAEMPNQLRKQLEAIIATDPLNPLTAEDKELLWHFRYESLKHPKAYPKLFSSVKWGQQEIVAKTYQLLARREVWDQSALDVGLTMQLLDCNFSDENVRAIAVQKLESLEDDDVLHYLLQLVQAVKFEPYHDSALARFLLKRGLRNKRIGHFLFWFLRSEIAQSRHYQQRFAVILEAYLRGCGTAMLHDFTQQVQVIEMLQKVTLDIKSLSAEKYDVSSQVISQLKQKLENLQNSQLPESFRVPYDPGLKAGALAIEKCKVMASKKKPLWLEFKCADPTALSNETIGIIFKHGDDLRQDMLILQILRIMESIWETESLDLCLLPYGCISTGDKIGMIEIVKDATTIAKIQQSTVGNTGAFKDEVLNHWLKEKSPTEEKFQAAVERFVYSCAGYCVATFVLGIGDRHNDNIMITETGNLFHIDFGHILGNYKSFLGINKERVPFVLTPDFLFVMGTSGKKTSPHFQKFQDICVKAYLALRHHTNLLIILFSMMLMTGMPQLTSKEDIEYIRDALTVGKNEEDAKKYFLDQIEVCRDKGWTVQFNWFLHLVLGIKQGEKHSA
T3 sequence (P42338 whole entry): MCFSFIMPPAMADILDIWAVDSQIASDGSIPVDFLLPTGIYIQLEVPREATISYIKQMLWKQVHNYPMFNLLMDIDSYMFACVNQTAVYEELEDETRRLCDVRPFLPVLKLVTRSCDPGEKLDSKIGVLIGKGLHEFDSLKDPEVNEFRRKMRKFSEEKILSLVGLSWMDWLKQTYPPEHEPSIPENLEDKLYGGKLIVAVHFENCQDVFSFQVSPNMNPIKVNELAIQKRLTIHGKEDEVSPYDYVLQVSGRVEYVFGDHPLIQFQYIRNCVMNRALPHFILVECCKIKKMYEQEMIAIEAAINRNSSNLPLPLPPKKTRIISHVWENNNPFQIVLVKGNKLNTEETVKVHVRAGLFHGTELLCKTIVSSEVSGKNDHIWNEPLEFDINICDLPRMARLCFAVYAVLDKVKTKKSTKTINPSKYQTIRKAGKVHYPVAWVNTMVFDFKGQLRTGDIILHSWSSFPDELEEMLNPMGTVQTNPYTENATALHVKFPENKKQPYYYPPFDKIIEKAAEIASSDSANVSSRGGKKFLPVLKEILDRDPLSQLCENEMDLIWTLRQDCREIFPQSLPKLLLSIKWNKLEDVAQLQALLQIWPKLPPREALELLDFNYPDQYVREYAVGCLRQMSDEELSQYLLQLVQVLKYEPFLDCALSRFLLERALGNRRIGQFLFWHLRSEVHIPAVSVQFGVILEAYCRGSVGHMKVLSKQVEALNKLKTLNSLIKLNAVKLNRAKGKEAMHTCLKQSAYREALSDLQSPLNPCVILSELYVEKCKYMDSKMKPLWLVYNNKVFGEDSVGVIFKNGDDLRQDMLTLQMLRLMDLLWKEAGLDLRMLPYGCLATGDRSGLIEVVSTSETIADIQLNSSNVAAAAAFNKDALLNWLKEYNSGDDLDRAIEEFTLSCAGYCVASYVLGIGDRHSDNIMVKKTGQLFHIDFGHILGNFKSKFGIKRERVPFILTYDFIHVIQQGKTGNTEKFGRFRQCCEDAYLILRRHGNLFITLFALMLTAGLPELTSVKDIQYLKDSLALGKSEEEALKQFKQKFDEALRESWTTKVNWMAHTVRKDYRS
T3 sequence (P27986 whole entry partner): as the sequence (P27986 whole entry partner) above
T2 sequence (O00329 whole entry): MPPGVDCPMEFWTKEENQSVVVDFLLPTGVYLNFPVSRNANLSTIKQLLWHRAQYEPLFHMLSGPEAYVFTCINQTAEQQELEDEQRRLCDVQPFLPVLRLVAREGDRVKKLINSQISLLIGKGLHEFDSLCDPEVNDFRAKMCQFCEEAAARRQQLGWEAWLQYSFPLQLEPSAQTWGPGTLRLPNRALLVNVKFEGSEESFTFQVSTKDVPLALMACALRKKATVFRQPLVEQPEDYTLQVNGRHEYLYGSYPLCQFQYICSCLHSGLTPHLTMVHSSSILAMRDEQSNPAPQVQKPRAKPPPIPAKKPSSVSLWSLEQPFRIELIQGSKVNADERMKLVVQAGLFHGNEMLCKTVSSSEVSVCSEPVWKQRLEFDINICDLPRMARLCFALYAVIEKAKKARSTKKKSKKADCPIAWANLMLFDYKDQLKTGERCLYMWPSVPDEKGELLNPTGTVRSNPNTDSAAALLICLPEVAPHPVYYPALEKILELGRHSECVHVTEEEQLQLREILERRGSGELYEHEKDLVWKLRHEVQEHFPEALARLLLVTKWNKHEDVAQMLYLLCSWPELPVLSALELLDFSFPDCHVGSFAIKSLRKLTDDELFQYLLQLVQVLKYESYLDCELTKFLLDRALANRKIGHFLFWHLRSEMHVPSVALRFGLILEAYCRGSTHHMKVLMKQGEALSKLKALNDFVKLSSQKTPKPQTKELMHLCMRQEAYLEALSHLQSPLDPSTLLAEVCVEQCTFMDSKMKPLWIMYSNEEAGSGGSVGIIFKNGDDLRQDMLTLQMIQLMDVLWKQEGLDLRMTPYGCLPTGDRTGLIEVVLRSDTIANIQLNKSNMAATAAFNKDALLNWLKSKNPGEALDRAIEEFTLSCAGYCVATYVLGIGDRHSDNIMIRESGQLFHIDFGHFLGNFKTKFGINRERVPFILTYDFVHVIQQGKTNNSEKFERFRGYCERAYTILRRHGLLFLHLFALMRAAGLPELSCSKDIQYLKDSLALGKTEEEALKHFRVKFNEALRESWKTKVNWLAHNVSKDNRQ
T2 sequence (P27986 whole entry partner): as the sequence (P27986 whole entry partner) above

Usually IC50 stands for the midpoint of a concentration-inhibition curve. On to `Nc1nc2cc(-c3ccn4ncc(C(=O)N5CCC(N6CCOCC6)CC5)c4c3)ccc2o1` [Compound 398], for which the 50% inhibitory concentration (IC50) in assay [1] was < 1 µM; in assay [2], < 10 µM; in assay [3] it was < 10 µM; in assay [4], < 10 µM.

As for `O=C(c1cnc2ccc(-c3cccc(NS(=O)(=O)c4ccccc4)c3)cn12)N1CCOCC1` [Compound 453], the IC50 was < 10 µM in assay [1], > 10 µM in assay [2], > 10 µM in assay [3] and < 10 µM in assay [4].

As for `Nc1nc2cc(-c3ccc4ncc(S(=O)(=O)N5CCOCC5)n4c3)ccc2o1` [Compound 109], the IC50 in assay [1], in assay [2], in assay [3] and in assay [4] was > 10 µM throughout.

As to `CCN(CC)CCn1cnc2ccc(-c3ccc4oc(N)nc4c3)cc2c1=O` [Compound 224], the 50% inhibitory concentration (IC50) in assay [1] was < 10 µM; in assay [2] it was > 10 µM; in assay [3] it was > 10 µM; in assay [4], > 10 µM.

For the molecule `CC1(C)CN(C2CN(c3cnc4ccc(-c5ccc6oc(N)nc6c5)nc4n3)C2)CCO1` [Compound 568], the half-maximal inhibitory concentration (IC50) in assay [1] (Table 4 (PI3K α inhibitors)) is < 1 µM; in assay [2] (Table 4 (PI3K α inhibitors)) it was > 10 µM; in assay [3] (Table 4 (PI3K α inhibitors)), > 10 µM; in assay [4] (Table 4 (PI3K α inhibitors)) it was < 10 µM.

In the case of `CC1(C)CN(C2CN(C(=O)c3cnc4ccc(-c5ccc6oc(N)nc6c5)cn34)C2)CCN1` [Compound 515], the IC50 was < 0.1 µM in assay [1], < 0.1 µM in assay [2], < 10 µM in assay [3] and < 1 µM in assay [4].

As to `Nc1nc2cc(-c3ccc4ncc(N5CCN(CC6CC6)CC5=O)nc4c3)ccc2o1` [Compound 393], the IC50 is < 10 µM in assay [1], > 10 µM in assay [2], > 10 µM in assay [3] and > 10 µM in assay [4].

With `Nc1nc2cc(-c3ccc4ncc(N5CCCC5)nc4c3)ccc2o1` [Compound 176], the IC50 was < 0.1 µM in assay [1], < 1 µM in assay [2], < 1 µM in assay [3] and < 0.1 µM in assay [4].

`Nc1nc2cc(-c3ccc4ncc(C(=O)N5CCC(F)CC5)n4c3)ccc2o1` [Compound 503]: the IC50 in assay [1] was < 1 µM; in assay [2] it was > 10 µM; in assay [3], > 10 µM; in assay [4], < 0.1 µM.

Regarding `Cc1c(-c2ccc3ncc(N4CC(N5CCOCC5)C4)nc3c2)ccc2oc(N)nc12` [Compound 362], the 50% inhibitory concentration (IC50) in assay [1], in assay [2], in assay [3] and in assay [4] was > 10 µM throughout.

For `COc1ncc(-c2ccc3ncc(C(=O)N4CCOCC4)n3c2)cc1NS(=O)(=O)c1ccccc1F` [Compound 422], the IC50 in assay [1] is < 0.1 µM; in assay [2] it was < 1 µM; in assay [3] it was < 10 µM; in assay [4], < 0.1 µM.

On to `Cc1nc2ccc(-c3ccc4oc(N)nc4c3)cn2c1C(=O)N1CCN(C)CC1` [Compound 91], for which the IC50 in assay [1], in assay [2], in assay [3] and in assay [4] was > 10 µM in each case.

Consider `NC(=O)[C@@H]1CCCN1C(=O)c1cnc2ccc(-c3ccc4oc(N)nc4c3)cn12` [Compound 259], for which the IC50 in assay [1] is < 1 µM; in assay [2] it was > 10 µM; in assay [3] it was > 10 µM; in assay [4], < 10 µM.

For `Nc1nc2cc(-c3ccc4ncn(C5CCCC5)c(=O)c4c3)ccc2o1` [Compound 256], the IC50 in assay [1] was < 10 µM; in assay [2], > 10 µM; in assay [3], > 10 µM; in assay [4], > 10 µM.

For `Nc1nc2cc(-c3cn4c(-c5cn[nH]c5)cnc4cn3)ccc2o1` [Compound 69], the IC50 in assay [1] was < 1 µM; in assay [2], < 10 µM; in assay [3], < 10 µM; in assay [4], < 1 µM.

On to `Nc1nc2cc(-c3ccc4ncc(-c5ccccn5)nc4c3)ccc2o1` [Compound 195], for which the IC50 in assay [1] was < 1 µM; in assay [2] it was > 10 µM; in assay [3], < 10 µM; in assay [4], < 0.1 µM.

Regarding `Nc1nc2ccc(-c3ccc4nnc(-c5ccncc5)n4c3)cc2o1` [Compound 230], the IC50 in assay [1] was < 10 µM; in assay [2], < 10 µM; in assay [3], < 1 µM; in assay [4], < 1 µM.

Take `Nc1nc2cc(-c3ccc4ncc(N5CCC(N)CC5)nc4c3)ccc2o1` [Compound 168]: the IC50 in assay [1] is < 0.1 µM; in assay [2], < 10 µM; in assay [3], < 1 µM; in assay [4] it was > 10 µM.

Take `Nc1nc2cc(-c3ccc4ncc(N5CCOCC5)n4c3)ccc2o1` [Compound 53]: the IC50 in assay [1] was < 10 µM; in assay [2], > 10 µM; in assay [3] it was > 10 µM; in assay [4] it was > 10 µM.
